From PubChem BioAssay (NCI)
Where “and” joins values, the source holds several entries; their conditions need not be identical. Identical values can stand only once.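 Following 48 hours of exposure in 96-well plates, responses at five concentrations were used to interpolate endpoints linearly. GI50 is the concentration that inhibits growth by half. TGI: concentration producing complete growth inhibition.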

What was measured:
Experiment in all cases: NCI anticancer screen, dose series, 48 h
[1] = system: COLO 205 colon
[2] = system: OVCAR-3 ovarian
[3] = system: SF-539 CNS
[4] = system: IGROV1 ovarian
[5] = system: PC-3 prostate
[6] = system: CCRF-CEM leukemia
[7] = system: OVCAR-8 ovarian
[8] = system: DU-145 prostate

SMILES	GI50 [1]	TGI [1]	GI50 [2]	TGI [2]	GI50 [3]	TGI [3]	GI50 [4]	TGI [4]	GI50 [5]	TGI [5]	GI50 [6]	TGI [6]	GI50 [7]	TGI [7]	GI50 [8]	TGI [8]
O=C(c1cccs1)c1c(C(F)(F)F)n([O-])c2ccc(F)cc2[n+]1=O	0.456 µM	1.62 µM	0.793 µM	2.35 µM	1.67 µM	3.47 µM	0.279 µM	1.49 µM	0.961 µM	2.33 µM	0.662 µM	1.98 µM	0.528 µM	1.34 µM	1.15 µM	3.12 µM
Cc1cc(-c2nc(-c3ccc(OC(F)(F)F)cc3)no2)nn1Cc1ccnc(N2CCN(C3CC3)CC2)c1	3.27 µM	25.7 µM	10.3 µM	> 100 µM	> 33 µM	> 63.8 µM	> 50 µM	> 100 µM	3.38 µM	> 100 µM	7.09 µM	> 100 µM	> 44.4 µM	> 100 µM	> 59.4 µM	> 100 µM
CN(C)CCN=Cc1c2ccccc2c(=O)n2c1oc1ccccc12	–	–	11.7 µM	24 µM	2.96 µM	8.81 µM	10.6 µM	27.6 µM	11.5 µM	29.9 µM	4.36 µM	62.8 µM	5.89 µM	21.5 µM	2.97 µM	14.5 µM
N#Cc1c(NC(=O)CN2CCOCC2)sc2c1CCCC2	> 25 µM	> 25 µM	> 25 µM	> 25 µM	> 25 µM	> 25 µM	> 25 µM	> 25 µM	> 25 µM	> 25 µM	> 25 µM	> 25 µM	> 25 µM	> 25 µM	> 25 µM	> 25 µM
COc1cc(C2CC(c3cc(C)ccc3C)=NN2c2ccc(S(=O)(=O)NC(=O)NCc3ccccc3)cc2)cc(OC)c1OC (stereo unspecified)	–	–	2.42 µM	5.4 µM	2.02 µM	4.69 µM	3.95 µM	19.8 µM	2.54 µM	12.3 µM	3.15 µM	18.6 µM	3.77 µM	32.4 µM	6.05 µM	30.8 µM
C/C(=C\CCc1ccoc1)CC/C=C(\C)CCCN1CCC(CO)CC1	1.94 µM	3.98 µM	3.78 µM	13.7 µM	2.39 µM	6.9 µM	5.33 µM	19 µM	–	–	2.42 µM	6.47 µM	5.19 µM	19 µM	8.41 µM	20.6 µM
CC[C@H](C)n1cc(C)c2c(C(=O)NCc3c(C)cc(C)[nH]c3=O)cc(-c3ccc(N4CCNCC4)nc3)cc21	5.25 µM and 2.93 µM	18.6 µM and 8.85 µM	14.2 µM	27.4 µM and 28.2 µM	15.1 µM and 13 µM	28.5 µM and 26.7 µM	12.9 µM and 16.4 µM	27.4 µM and 33.2 µM	17.3 µM and 13.9 µM	31.5 µM and 27.3 µM	18 µM and 11.1 µM	35.9 µM and 26.3 µM	18.5 µM and 17.7 µM	37.4 µM and 37.6 µM	14.7 µM and 15.1 µM	27.9 µM and 28.7 µM
